The numbers were not newly measured in patent US11077096B2, “Modified release compositions comprising tacrolimus” (Veloxis Pharmaceuticals A/S, priority 2003, dated 2021), which cites them from elsewhere.

Structures are written as SMILES.

Assay in series [1]: not given
The source holds these as a separate data set.

As a reminder, the bioavailability is dose-corrected exposure relative to a reference, in per cent. On to `C=CC[C@@H]1/C=C(\C)C[C@H](C)C[C@H](OC)[C@H]2O[C@@](O)(C(=O)C(=O)N3CCCC[C@H]3C(=O)OC(/C(C)=C/[C@@H]3CC[C@@H](O)[C@H](OC)C3)[C@H](C)[C@@H](O)CC1=O)[C@H](C)C[C@@H]2OC` (stereo partly drawn) [Tacrolimus], for which the bioavailability (after oral administration) is at most 20%. Also, the “mean time-to-peak concentration (tmax)” value (oral administration, healthy subjects or kidney or liver transplanted patients) was 1 to 2 h. For the same molecule, in series [1] (chloroform), the Solubility in chloroform result was “very soluble”. For the same molecule, in series [1] (ethanol), the Solubility in ethanol entry is given as “freely soluble”. Besides, the Solubility in methanol entry in series [1] (methanol) is given as “very soluble”. In addition, the Solubility in water entry in series [1] (water) is recorded as “practically insoluble”.
